{"source": "ChEMBL document CHEMBL5608191", "about": "“Structure-based discovery of novel piperidine-biphenyl-DAPY derivatives as non-nucleoside reverse transcriptase inhibitors featuring improved potency, safety, and selectivity: From piperazine-biphenyl-DAPYs to piperidine-biphenyl-DAPYs” (Eur J Med Chem, 2024)", "key": {"[1]": {"test": "Cytotoxicity against human MT4 cells assessed as reduction in cell viability incubated for 5 days by MTT assay", "type": "toxicity, cell-based", "details": "time 5 day"}, "[2]": {"test": "Selectivity index, ratio of CC50 for human MT4 cells to EC50 for wild-type HIV-1 IIIB infected in human MT4 cells", "type": "toxicity, cell-based", "details": "read-out: Ratio CC50/EC50"}, "[3]": {"tested_on": "Human immunodeficiency virus 1", "test": "Antiviral activity against wild-type HIV-1 IIIB infected in human MT4 cells assessed as protection against virus-induced cytopathic effect incubated for 5 days by MTT assay", "type": "functional, organism-based", "details": "Human immunodeficiency virus 1, IIIB, MT4, 120 h"}, "[4]": {"molecular_target": "Human immunodeficiency virus type 1 reverse transcriptase (Human immunodeficiency virus 1, UniProt Q72547)", "test": "Inhibition of recombinant wild-type HIV-1 reverse transcriptase incubated for 40 mins by fluorescence based assay"}, "[5]": {"tested_on": "Human immunodeficiency virus 1", "test": "Antiviral activity against HIV-1 harboring RT E138K mutant infected in human MT4 cells assessed as protection against virus-induced cytopathic effect incubated for 5 days by MTT assay", "type": "functional, organism-based", "details": "Human immunodeficiency virus 1, MT4, 120 h"}, "[6]": {"tested_on": "Human immunodeficiency virus 1", "test": "Antiviral activity against HIV-1 harboring RT Y181C mutant infected in human MT4 cells assessed as protection against virus-induced cytopathic effect incubated for 5 days by MTT assay", "type": "functional, organism-based", "details": "Human immunodeficiency virus 1, MT4, 120 h"}, "[7]": {"tested_on": "Human immunodeficiency virus 1", "test": "Antiviral activity against HIV-1 harboring RT K103N mutant infected in human MT4 cells assessed as protection against virus-induced cytopathic effect incubated for 5 days by MTT assay", "type": "functional, organism-based", "details": "Human immunodeficiency virus 1, MT4, 120 h"}, "[8]": {"tested_on": "Human immunodeficiency virus 1", "test": "Antiviral activity against HIV-1 harboring RT L100I mutant infected in human MT4 cells assessed as protection against virus-induced cytopathic effect incubated for 5 days by MTT assay", "type": "functional, organism-based", "details": "Human immunodeficiency virus 1, MT4, 120 h"}, "[9]": {"tested_on": "Human immunodeficiency virus 1", "test": "Antiviral activity against HIV-1 harboring RT Y188L mutant infected in human MT4 cells assessed as protection against virus-induced cytopathic effect incubated for 5 days by MTT assay", "type": "functional, organism-based", "details": "Human immunodeficiency virus 1, MT4, 120 h"}}, "note": "pEC50, pIC50: −log10 of the molar value.", "data": [{"smiles": "CCOC(=O)c1cnc(N2CCN(Cc3cccc(C(N)=O)c3)CC2)nc1Oc1c(C)cc(-c2ccc(C#N)cc2)cc1C", "values": [{"measurement": "CC50 at 120 h", "setting": "[1]", "result": 14800, "unit": "nM"}, {"measurement": "selectivity ratio", "setting": "[2]", "result": 4}, {"measurement": "pEC50", "setting": "[3]", "result": 5.47}]}, {"smiles": "CCOC(=O)c1cnc(NC2CCN(Cc3ccccc3F)CC2)nc1Oc1c(C)cc(-c2ccc(C#N)cc2)cc1C", "values": [{"measurement": "CC50 at 120 h", "setting": "[1]", "result": 189000, "unit": "nM"}, {"measurement": "pIC50", "setting": "[4]", "result": 6.11}, {"measurement": "selectivity ratio", "setting": "[2]", "result": 4040}, {"measurement": "pEC50", "setting": "[3]", "result": 7.33}]}, {"smiles": "CCOC(=O)c1cnc(NC2CCN(Cc3ccc(Cl)cc3)CC2)nc1Oc1c(C)cc(-c2ccc(C#N)cc2)cc1C", "values": [{"measurement": "CC50 at 120 h", "setting": "[1]", "result": 141000, "unit": "nM"}, {"measurement": "pIC50", "setting": "[4]", "result": 6.50}, {"measurement": "selectivity ratio", "setting": "[2]", "result": 728}, {"measurement": "pEC50", "setting": "[3]", "result": 6.71}]}, {"smiles": "CCOC(=O)c1cnc(NC2CCN(Cc3ccc(C#N)cc3)CC2)nc1Oc1c(C)cc(-c2ccc(C#N)cc2)cc1C", "values": [{"measurement": "CC50 at 120 h", "setting": "[1]", "result": 131000, "unit": "nM"}, {"measurement": "pIC50", "setting": "[4]", "result": 6.11}, {"measurement": "selectivity ratio", "setting": "[2]", "result": 604}, {"measurement": "pEC50", "setting": "[3]", "result": 6.66}]}, {"smiles": "CCOC(=O)c1cnc(NC2CCN(Cc3ccc(/C=C/C(=O)OC)cc3)CC2)nc1Oc1c(C)cc(-c2ccc(C#N)cc2)cc1C", "values": [{"measurement": "CC50 at 120 h", "setting": "[1]", "result": "> 194000", "unit": "nM"}, {"measurement": "pIC50", "setting": "[4]", "result": 6.27}, {"measurement": "selectivity ratio", "setting": "[2]", "result": "> 2450"}, {"measurement": "pEC50", "setting": "[3]", "result": 7.10}]}, {"smiles": "CCOC(=O)c1cnc(NC2CCN(Cc3ccc(OC)cc3)CC2)nc1Oc1c(C)cc(-c2ccc(C#N)cc2)cc1C", "values": [{"measurement": "CC50 at 120 h", "setting": "[1]", "result": 125000, "unit": "nM"}, {"measurement": "pIC50", "setting": "[4]", "result": 6.21}, {"measurement": "selectivity ratio", "setting": "[2]", "result": 3740}, {"measurement": "pEC50", "setting": "[3]", "result": 7.48}]}, {"smiles": "CCOC(=O)c1cnc(NC2CCN(Cc3ccccc3C#N)CC2)nc1Oc1c(C)cc(-c2ccc(C#N)cc2)cc1C", "values": [{"measurement": "CC50 at 120 h", "setting": "[1]", "result": 196000, "unit": "nM"}, {"measurement": "pIC50", "setting": "[4]", "result": 6.49}, {"measurement": "selectivity ratio", "setting": "[2]", "result": 3940}, {"measurement": "pEC50", "setting": "[3]", "result": 7.30}]}, {"smiles": "CCOC(=O)c1cnc(NC2CCN(Cc3ccc(F)c(F)c3)CC2)nc1Oc1c(C)cc(-c2ccc(C#N)cc2)cc1C", "values": [{"measurement": "CC50 at 120 h", "setting": "[1]", "result": 194000, "unit": "nM"}, {"measurement": "pIC50", "setting": "[4]", "result": 6.28}, {"measurement": "selectivity ratio", "setting": "[2]", "result": 967}, {"measurement": "pEC50", "setting": "[3]", "result": 6.70}]}, {"smiles": "CCOC(=O)c1cnc(NC2CCN(Cc3ccc(C)cc3)CC2)nc1Oc1c(C)cc(-c2ccc(C#N)cc2)cc1C", "values": [{"measurement": "CC50 at 120 h", "setting": "[1]", "result": 178000, "unit": "nM"}, {"measurement": "pIC50", "setting": "[4]", "result": 6.05}, {"measurement": "selectivity ratio", "setting": "[2]", "result": 5080}, {"measurement": "pEC50", "setting": "[3]", "result": 7.46}]}, {"smiles": "CCOC(=O)c1cnc(NC2CCN(Cc3ccc(B(O)O)cc3)CC2)nc1Oc1c(C)cc(-c2ccc(C#N)cc2)cc1C", "values": [{"measurement": "CC50 at 120 h", "setting": "[1]", "result": 20900, "unit": "nM"}, {"measurement": "pIC50", "setting": "[4]", "result": 5.89}, {"measurement": "selectivity ratio", "setting": "[2]", "result": 439}, {"measurement": "pEC50", "setting": "[3]", "result": 7.32}]}, {"smiles": "CCOC(=O)c1cnc(NC2CCN(Cc3ccc(CO)cc3)CC2)nc1Oc1c(C)cc(-c2ccc(C#N)cc2)cc1C", "values": [{"measurement": "CC50 at 120 h", "setting": "[1]", "result": 192000, "unit": "nM"}, {"measurement": "pIC50", "setting": "[4]", "result": 6.29}, {"measurement": "selectivity ratio", "setting": "[2]", "result": 4740}, {"measurement": "pEC50", "setting": "[3]", "result": 7.40}]}, {"smiles": "CCOC(=O)c1cnc(NC2CCN(Cc3ccc(C(F)(F)F)cc3)CC2)nc1Oc1c(C)cc(-c2ccc(C#N)cc2)cc1C", "values": [{"measurement": "CC50 at 120 h", "setting": "[1]", "result": "> 199000", "unit": "nM"}, {"measurement": "pIC50", "setting": "[4]", "result": 6.00}, {"measurement": "selectivity ratio", "setting": "[2]", "result": "> 472"}, {"measurement": "pEC50", "setting": "[3]", "result": 6.38}]}, {"smiles": "CCOC(=O)c1cnc(NC2CCN(Cc3ccc(F)cc3F)CC2)nc1Oc1c(C)cc(-c2ccc(C#N)cc2)cc1C", "values": [{"measurement": "CC50 at 120 h", "setting": "[1]", "result": 176000, "unit": "nM"}, {"measurement": "pIC50", "setting": "[4]", "result": 6.20}, {"measurement": "selectivity ratio", "setting": "[2]", "result": 3280}, {"measurement": "pEC50", "setting": "[3]", "result": 7.27}]}, {"smiles": "CCOC(=O)c1cnc(NC2CCN(Cc3ccc([N+](=O)[O-])cc3)CC2)nc1Oc1c(C)cc(-c2ccc(C#N)cc2)cc1C", "values": [{"measurement": "CC50 at 120 h", "setting": "[1]", "result": 164000, "unit": "nM"}, {"measurement": "pIC50", "setting": "[4]", "result": 6.39}, {"measurement": "selectivity ratio", "setting": "[2]", "result": 4390}, {"measurement": "pEC50", "setting": "[3]", "result": 7.43}]}, {"smiles": "CCOC(=O)c1cnc(NC2CCN(Cc3ccc(OC(F)(F)F)cc3)CC2)nc1Oc1c(C)cc(-c2ccc(C#N)cc2)cc1C", "values": [{"measurement": "CC50 at 120 h", "setting": "[1]", "result": 175000, "unit": "nM"}, {"measurement": "pIC50", "setting": "[4]", "result": 5.69}, {"measurement": "selectivity ratio", "setting": "[2]", "result": 923}, {"measurement": "pEC50", "setting": "[3]", "result": 6.72}]}, {"smiles": "O=C1Nc2ccc(Cl)cc2[C@@](C#CC2CC2)(C(F)(F)F)O1", "note": "[EFAVIRENZ]", "values": [{"measurement": "pEC50", "setting": "[5]", "result": 8.10}, {"measurement": "CC50 at 120 h", "setting": "[1]", "result": "> 6350", "unit": "nM"}, {"measurement": "pEC50", "setting": "[6]", "result": 8.10}, {"measurement": "pEC50", "setting": "[7]", "result": 7.11}, {"measurement": "pEC50", "setting": "[8]", "result": 7.41}]}, {"smiles": "Cc1ccnc2c1NC(=O)c1cccnc1N2C1CC1", "note": "[NEVIRAPINE]", "values": [{"measurement": "pEC50", "setting": "[5]", "result": 6.82}, {"measurement": "CC50 at 120 h", "setting": "[1]", "result": "> 15000", "unit": "nM"}, {"measurement": "pEC50", "setting": "[9]", "result": "< 5.00"}, {"measurement": "pEC50", "setting": "[8]", "result": 5.70}]}, {"smiles": "Cc1cn([C@H]2C[C@H](N=[N+]=[N-])[C@@H](CO)O2)c(=O)[nH]c1=O", "note": "[ZIDOVUDINE]", "values": [{"measurement": "pEC50", "setting": "[5]", "result": 7.41}, {"measurement": "CC50 at 120 h", "setting": "[1]", "result": "> 7490", "unit": "nM"}, {"measurement": "pEC50", "setting": "[6]", "result": 7.68}, {"measurement": "selectivity ratio", "setting": "[2]", "result": "> 223"}, {"measurement": "pEC50", "setting": "[7]", "result": 7.70}, {"measurement": "pEC50", "setting": "[9]", "result": 7.80}, {"measurement": "pEC50", "setting": "[3]", "result": 7.47}, {"measurement": "pEC50", "setting": "[8]", "result": 8.10}]}]}
